Values of other authors, collected in patent EP2151445B1, “Process for the preparation of bidentate Schiff base ruthenium catalysts containing a salicylaldimine-type ligand” (Rimtec Corporation, priority 2008, dated 2010).

Conditions: in water
For O=C([O-])[O-].[Cu+2] [CuCO3], the pKb is given as “about 3.69”. In the case of O=C([O-])[O-].[Na+].[Na+] [Na2CO3], the pKb is listed as “about 3.69”. In the case of O=C([O-])[O-].[Li+].[Li+] [Li2CO3], the pKb is given as “about 3.69”. In the case of O=C([O-])[O-].[K+].[K+] [K2CO3], the pKb is given as “about 3.69”.
